pIC50: −log10 of the molar value. Where “and” joins values, the source holds several entries; their conditions need not be identical. Identical values can stand only once.
Each compound was assayed against SARS-CoV-2 Main Protease (SARS-CoV-2) (UniProt P0DTD1).

Question: How did the pIC50 turn out when `O=C1N(c2cncc3ccccc23)CCC12CN(S(=O)(=O)CC1CS(=O)(=O)C1)Cc1ccc(Cl)cc12` (stereo unspecified) was run?
Answer: 6.45

Question: `O=C(NCCc1cccc(F)c1)C(c1cccnc1)N(C(=O)c1cocn1)C1COc2ccccc2C1` (stereo unspecified) was tested. Which pIC50 did it give?
Answer: < 4.00

Question: `CS(=O)(=O)Nc1ccc2cncc(NC(=O)C3CNC(=O)c4ccc(Cl)cc43)c2c1` (stereo unspecified) was tested. Which pIC50 did it give?
Answer: 6.71

Question: How did the pIC50 turn out when `CC1CN(C)CCN1C(=O)CC1(C(=O)Nc2cncc3ccccc23)CCOc2ccc(Cl)cc21` (stereo unspecified) was run?
Answer: 5.10 and 5.31

Question: How did the pIC50 turn out when `O=C(Nc1ccncc1)[C@@H](c1ccccc1)N1Cc2ccccc2C1=O` (stereo in doubt) was run?
Answer: < 4.00

Question: `CC1(C)OB(c2cnc(C#N)nc2)OC1(C)C` was tested. Which pIC50 did it give?
Answer: < 4.00

Question: With `c1ccc2oc(C3CCCN(Cc4cnc5cnccn45)C3)nc2c1` (stereo unspecified) as the compound, how does the pIC50 read?
Answer: < 4.00

Question: `Cc1cnnn1-c1ccc(N(C(=O)c2cocn2)C(C(=O)NCCc2cccc(F)c2)c2cccnc2)cc1` (stereo unspecified) was tested. Which pIC50 did it give?
Answer: 4.55

Question: `N#Cc1ncc(Br)cn1` was tested. Which pIC50 did it give?
Answer: < 4.00

Question: `COC[C@]1(C(=O)Nc2cncc3ccccc23)CCOc2cc(Cl)c(Cl)cc21` (stereo in doubt) was tested. Which pIC50 did it give?
Answer: 5.62 and 5.36

Question: How did the pIC50 turn out when `O=C(CCl)N1CCCN(S(=O)(=O)c2ccccc2F)CC1` was run?
Answer: 4.81

Question: How did the pIC50 turn out when `COC(C)(C)CS(=O)(=O)N1Cc2ccc(Cl)cc2C(C(=O)Nc2cncc3ccccc23)C1` (stereo unspecified) was run?
Answer: 6.70

Question: With `Cc1ccncc1NC(=O)Cc1cc(Cl)cc(OCCN2CCOCC2C)c1` (stereo unspecified) as the compound, how does the pIC50 read?
Answer: < 4.00

Question: With `Cc1ccc(Nc2cc(Cl)cc(CC(=O)Nc3cncc4ccccc34)c2)cc1Br` as the compound, how does the pIC50 read?
Answer: 5.68

Question: `O=C(CCl)N1CCCN(S(=O)(=O)c2ccc(F)cc2)CC1` was tested. Which pIC50 did it give?
Answer: 4.36

Question: How did the pIC50 turn out when `O=C(Cc1cc(Cl)cc(Cc2ccn[nH]2)c1)Nc1cncc2ccccc12` was run?
Answer: 5.30

Question: With `Nc1nc2[nH]cnc2c(=O)n1-c1cc(Cl)cc(CC(=O)Nc2cncc3ccccc23)c1` as the compound, how does the pIC50 read?
Answer: 5.73

Question: With `COc1cc(Nc2cc(Cl)cc(CC(=O)Nc3cncc4ccccc34)c2)cc(OC)c1` as the compound, how does the pIC50 read?
Answer: 5.71

Question: `O=C(O)CC1(C(=O)Nc2cncc3ccccc23)CCOc2ccc(Cl)cc21` (stereo unspecified) was tested. Which pIC50 did it give?
Answer: 4.50 and < 5.00

Question: With `O=C(c1cc(=O)[nH]c2ccccc12)N1CCN(Cc2cccc(Cl)c2)CC1` as the compound, how does the pIC50 read?
Answer: 5.34

Question: `O=C(Cc1cc(Cl)cc(NC[C@H](O)c2ccc(O)cc2)c1)Nc1cncc2ccccc12` (stereo in doubt) was tested. Which pIC50 did it give?
Answer: 5.79

Question: With `O=C1NC2(COc3ccc(Cl)cc32)C(=O)N1c1cncc2ccc(F)cc12` (stereo unspecified) as the compound, how does the pIC50 read?
Answer: 5.86

Question: `O=C(Cc1cc(Cl)cc(Nc2ncnc3c2ncn3CCO)c1)Nc1cncc2ccccc12` was tested. Which pIC50 did it give?
Answer: 5.74

Question: `CS(=O)(=O)Nc1ccc(Cl)cc1C(=O)N1CCC(C2CCNC2)CC1` (stereo unspecified) was tested. Which pIC50 did it give?
Answer: < 4.00

Question: `C[C@H](Nc1cc(Cl)cc(CC(=O)Nc2cncc3ccccc23)c1)c1cccc2ccccc12` (stereo in doubt) was tested. Which pIC50 did it give?
Answer: 5.45

Question: `CNC(=O)CN1CC2(CCN(c3cncc4ccccc34)C2=O)c2cc(Cl)ccc2S1(=O)=O` (stereo unspecified) was tested. Which pIC50 did it give?
Answer: 6.56

Question: How did the pIC50 turn out when `O=C(NCc1cccc(Cl)c1)c1cncc2ccccc12` was run?
Answer: 4.49

Question: `COc1ccccc1OC1CCN(C(=O)c2cc(=O)[nH]c3ccccc23)C1` (stereo unspecified) was tested. Which pIC50 did it give?
Answer: < 4.00

Question: How did the pIC50 turn out when `CN(C)C(=O)CN1CCc2ccc(Cl)cc2C1C(=O)Nc1cncc2ccccc12` (stereo unspecified) was run?
Answer: 5.81

Question: `O=C(Cc1cccc(Cl)c1)Nc1cncc2c1OCCC2` was tested. Which pIC50 did it give?
Answer: 5.00 and 4.85

Question: `CCc1ccc2c(c1)C(=O)C(=O)N2CC(=O)O` was tested. Which pIC50 did it give?
Answer: < 4.00

Question: `Cc1ncc(CN2CC(C(=O)Nc3cncc4cc(S(C)(=O)=O)ccc34)c3cc(Cl)ccc3C2=O)[nH]1` (stereo unspecified) was tested. Which pIC50 did it give?
Answer: 6.65

Question: With `CCOC(=O)c1ccc(NC(=O)CC2SC(=O)N(c3ccccc3)C2=O)cc1` (stereo unspecified) as the compound, how does the pIC50 read?
Answer: 5.62

Question: How did the pIC50 turn out when `Nc1ccc2[nH]c(C(=O)N(C(=O)c3ccco3)C(C(=O)NCCc3cccc(F)c3)c3cccnc3)cc2c1` (stereo unspecified) was run?
Answer: < 4.00

Question: With `CC(C)(C)c1cc(N(C(=O)c2cocn2)C(C(=O)NCCc2cccc(F)c2)c2cccnc2)no1` (stereo unspecified) as the compound, how does the pIC50 read?
Answer: 4.29

Question: How did the pIC50 turn out when `O=C(Nc1cncc2[nH]c(=O)[nH]c12)C1CCOc2ccc(Cl)cc21` (stereo unspecified) was run?
Answer: 4.20

Question: `O=C(Cc1cc(Cl)cc(Nc2ncc(F)cc2Br)c1)Nc1cncc2ccccc12` was tested. Which pIC50 did it give?
Answer: 5.74

Question: `O=C(CC1(C(=O)Nc2cncc3ccccc23)CCOc2ccc(Cl)cc21)N1CCN(C2CCOC2)CC1` (stereo unspecified) was tested. Which pIC50 did it give?
Answer: 5.18

Question: How did the pIC50 turn out when `O=C(Cc1cc(Cl)cc(Nc2ccc(Br)cc2O)c1)Nc1cncc2ccccc12` was run?
Answer: 5.41

Question: `O=C(Nc1ccc(N(C(=O)c2cocn2)C(C(=O)NCCc2cccc(F)c2)c2cccnc2)cc1)NC1CC1` (stereo unspecified) was tested. Which pIC50 did it give?
Answer: < 4.00

Question: `Cc1ccncc1NC(=O)Cc1cc(Cl)cc(-c2ncc[nH]2)c1` was tested. Which pIC50 did it give?
Answer: < 4.00

Question: `Cn1nnnc1C1=CCN(C(=O)CC2(C(=O)Nc3cncc4ccccc34)CCOc3ccc(Cl)cc32)CC1` (stereo unspecified) was tested. Which pIC50 did it give?
Answer: 5.04

Question: `N#CC1(CS(=O)(=O)N2Cc3ccc(Cl)cc3C3(CCN(c4cncc5ccc(OCCCN6CCCC6)cc45)C3=O)C2)CC1` (stereo unspecified) was tested. Which pIC50 did it give?
Answer: 6.89

Question: With `Cc1cc(C(F)(F)F)nc2n[nH]c(NC(=O)C3CCOc4ccc(Cl)cc43)c12` (stereo unspecified) as the compound, how does the pIC50 read?
Answer: 4.59

Question: `O=C(NCCc1cccc(F)c1)C(c1cccnc1)N(C(=O)c1cocn1)C1CCC2OCCC2C1` (stereo unspecified) was tested. Which pIC50 did it give?
Answer: < 4.00

Question: How did the pIC50 turn out when `Cc1csc2ncc(C(=O)Nc3cccc4ncccc34)c(=O)n12` was run?
Answer: < 4.00

Question: With `O=C(Nc1cncc2ccccc12)C1COc2c(Cl)cccc21` (stereo unspecified) as the compound, how does the pIC50 read?
Answer: 5.32

Question: `CNC1CCc2c(NC(=O)C3CCOc4ccc(Cl)cc43)cncc21` (stereo unspecified) was tested. Which pIC50 did it give?
Answer: < 4.00

Question: How did the pIC50 turn out when `C=CC(=O)NCC(=O)N(CCN1CCOCC1)Cc1sccc1Br` was run?
Answer: < 4.00

Question: `Cc1c(Nc2cc(Cl)cc(CC(=O)Nc3cncc4ccccc34)c2)c(=O)n(-c2ccccc2)n1C` was tested. Which pIC50 did it give?
Answer: 5.47

Question: With `COC1(CS(=O)(=O)N2CC(C(=O)Nc3cncc4cc(S(C)(=O)=O)ccc34)c3cc(Cl)ccc3C2=O)CC1` (stereo unspecified) as the compound, how does the pIC50 read?
Answer: 6.11

Question: How did the pIC50 turn out when `O=C(Cc1cc(Cl)cc(Nc2cccc(F)c2[N+](=O)[O-])c1)Nc1cncc2ccccc12` was run?
Answer: 5.70

Question: How did the pIC50 turn out when `COc1ccc(Nc2cc(Cl)cc(CC(=O)Nc3cncc4ccccc34)c2)c([N+](=O)[O-])c1` was run?
Answer: 5.67

Question: With `C[C@H](C/C=C/C(C)(C)O)[C@H]1CC[C@@]2(C)[C@@H]3C=C[C@@]45OC[C@]3(CC[C@]12C)[C@@H]4CC[C@H](O)C5(C)C` (stereo in doubt) as the compound, how does the pIC50 read?
Answer: < 4.00

Question: With `O=C(Nc1cncc2ccccc12)C1CN(C(=O)c2ncco2)Cc2ccc(Cl)cc21` (stereo unspecified) as the compound, how does the pIC50 read?
Answer: 6.04

Question: How did the pIC50 turn out when `Cc1cccc(C)c1NC(=O)[C@@H]1CN(C(=O)CCl)CCN1S(=O)(=O)c1ccsc1` (stereo in doubt) was run?
Answer: 5.79

Question: With `O=c1c2ccccc2c(-c2ccc(Br)cc2)nn1CC(O)CN1CCOCC1` (stereo unspecified) as the compound, how does the pIC50 read?
Answer: < 4.00

Question: `Cc1ccncc1NC(=O)Nc1cccc(Cl)c1` was tested. Which pIC50 did it give?
Answer: 4.17 and 4.21

Question: How did the pIC50 turn out when `O=C(Cc1cc(Cl)cc(NCc2cc(F)c(F)c(F)c2)c1)Nc1cncc2ccccc12` was run?
Answer: 5.47

Question: How did the pIC50 turn out when `CC(C)(C)c1ccc(N(C(=O)c2cocn2)C(C(=O)NCCc2cccc(F)c2)c2c(N3CCOCC3)nc3ccccn3c2=O)cc1` (stereo unspecified) was run?
Answer: < 4.00

Question: `Cc1ccncc1NC(=O)Cc1cc(Cl)cc(NC2CCCC2O)c1` (stereo unspecified) was tested. Which pIC50 did it give?
Answer: 4.71

Question: With `Cn1cncc1C(=O)N1Cc2ccc(Cl)cc2C(C(=O)Nc2cncc3ccccc23)C1` (stereo unspecified) as the compound, how does the pIC50 read?
Answer: 6.65

Question: `Cc1ccncc1NC(=O)Nc1cccc(C#N)c1` was tested. Which pIC50 did it give?
Answer: < 4.00

Question: With `Cc1cccc(C2CCCCN2C(=O)C(C)c2cncnc2)c1C` (stereo unspecified) as the compound, how does the pIC50 read?
Answer: < 4.00

Question: With `CCCCCC(=O)SCCNC(=O)CCNC(=O)[C@H](O)C(C)(C)COP(=O)(O)OP(=O)(O)OC[C@H]1O[C@@H](n2cnc3c(N)ncnc32)[C@H](O)[C@@H]1OP(=O)(O)O` (stereo in doubt) as the compound, how does the pIC50 read?
Answer: 4.34 and 4.07

Question: `O=C1CC(NC(=O)Cc2cccc(Cl)c2)C(=O)N1` (stereo unspecified) was tested. Which pIC50 did it give?
Answer: < 4.00

Question: With `Cc1c(N)cncc1NC(=O)Cc1cccc(C#N)c1` as the compound, how does the pIC50 read?
Answer: 4.79

Question: How did the pIC50 turn out when `O=C(Cc1ccccc1Cl)Nc1cncc2ccccc12` was run?
Answer: < 4.00

Question: How did the pIC50 turn out when `CC(C)(C)c1ccc(N(C(=O)c2cocn2)C(C(=O)NCCc2cccc(F)c2)c2ccc[nH]c2=O)cc1` (stereo unspecified) was run?
Answer: < 4.00

Question: With `O=C1CCCN(S(=O)(=O)c2cccs2)CC1` as the compound, how does the pIC50 read?
Answer: < 4.00

Question: `Cc1ccncc1NC(=O)Cc1cccc(-c2cn[nH]c2)c1` was tested. Which pIC50 did it give?
Answer: 4.27
